Assay results taken from patent publication US6248750A, “9-hydroxyamino tetrahydroacridine and related compounds” (Hoechst Roussel Pharmaceuticals, priority 2000, dated 2001).
Where a name gives a salt, the structure may show the parent alone. Read-outs that look alike come from different tables or passages of the source.

Tests used:
mice = assay: Dark Avoidance Assay (reversal of scopolamine induced memory deficit); type: in vivo; settings: retest after 24 hours
Description: In this assay mice are tested for their ability to remember an unpleasant stimulus for a period of 24 hours. A mouse is placed in a chamber that contains a dark compartment; a srong incandescent light drives it to the dark compartment, where an electric shock is administered through metal plates on the floor. The animal is removed from the testing apparatus and tested again, 24 hours later, for the ability to remember the electric shock.
If scopolamine, an anticholinergic that is known to cause memory impairment, is administered before an animal's initial exposure to the test chamber, the animal re-enters the dark compartment shortly after being placed in the test chamber 24 hours later.

acetylcholinesterase = acetylcholinesterase (Homo sapiens, UniProt P22303); assay: biochemical
Chain of acetylcholinesterase (P22303 32-614): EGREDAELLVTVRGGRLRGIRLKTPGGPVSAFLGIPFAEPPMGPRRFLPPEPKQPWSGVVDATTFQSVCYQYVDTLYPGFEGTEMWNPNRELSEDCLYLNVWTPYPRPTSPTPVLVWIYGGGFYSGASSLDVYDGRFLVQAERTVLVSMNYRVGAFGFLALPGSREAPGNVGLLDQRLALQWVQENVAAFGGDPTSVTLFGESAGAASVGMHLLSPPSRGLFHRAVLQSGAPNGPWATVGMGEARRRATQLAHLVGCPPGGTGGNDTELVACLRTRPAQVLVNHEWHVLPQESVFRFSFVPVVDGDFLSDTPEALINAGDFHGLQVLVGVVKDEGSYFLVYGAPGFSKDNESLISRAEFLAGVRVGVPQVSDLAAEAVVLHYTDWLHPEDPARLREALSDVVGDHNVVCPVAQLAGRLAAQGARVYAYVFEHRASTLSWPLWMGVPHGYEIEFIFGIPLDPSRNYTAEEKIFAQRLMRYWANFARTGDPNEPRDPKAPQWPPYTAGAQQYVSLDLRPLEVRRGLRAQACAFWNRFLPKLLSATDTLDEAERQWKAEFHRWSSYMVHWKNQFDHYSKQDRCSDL

Structure (SMILES)	IC50 (acetylcholinesterase)	% Animals with Scopolamine Induced memory deficit reversed (mice; dose 1.0 mg/kg s.c.)	other results
Nc1c2c(nc3ccccc13)CCCC2 [9-Amino-1,2,3,4-tetrahydroacridine, reference compound]			% Animals with Scopolamine Induced memory deficit reversed (mice; dose 0.31 mg/kg s.c.): 20%
Fc1ccccc1CONc1c2c(nc3ccccc13)CCCC2 [N-(2-Fluorobenzyloxy)-1,2,3,4-tetrahydro-9-acridinamine]	5.2 µM		
c1ccc(CONc2c3c(nc4ccccc24)CCCC3)cc1 [N-Benzyloxy-1,2,3,4-tetrahydro-9-acridinamine]	6.1 µM		
CONc1c2c(nc3ccccc13)CCCC2.Cl [N-Methoxy-1,2,3,4-tetrahydro-9-acridinamine hydrochloride]	0.51 µM	27%	
CON(C)c1c2c(nc3ccccc13)CCCC2 [N-Methoxy-N-methyl-1,2,3,4-tetrahydro-9-acridinamnine hydrochloride]		27%	IC50 (acetylcholinesterase; read-out: Cholinesterase Inhibition IC50): 27 µM
CCCONc1c2c(nc3ccccc13)CCCC2 [N-Propyloxy-1,2,3,4-tetrahydro-9-acridinamine, oxalate, hemihydrate]			IC50 (acetylcholinesterase; read-out: Cholinesterase Inhibition IC50, photometric method of Ellman et al.): 0.83 µM
